Test results: patent publication US20110091931A1, “Methods and Kits for Determining Oxygen Free Radical (OFR) Levels in Animal and Human Tissues as a Prognostic Marker for Cancer and Other Pathophysiologies” (COLBY PHARMACEUTICAL COMPANY, priority 2009, published 2011)
“Also recorded” adds a separate entry of the source.

What was measured:
androgen receptor = target: T1, androgen receptor (Homo sapiens, UniProt P10275, T878A); conditions: human LNCaP prostate cancer cells; cited from earlier work
T1 construct: androgen receptor in human LNCaP prostate cancer cells in laboratory studies; host or cells: LNCaP
T1 sequence (P10275 1-920 T878A): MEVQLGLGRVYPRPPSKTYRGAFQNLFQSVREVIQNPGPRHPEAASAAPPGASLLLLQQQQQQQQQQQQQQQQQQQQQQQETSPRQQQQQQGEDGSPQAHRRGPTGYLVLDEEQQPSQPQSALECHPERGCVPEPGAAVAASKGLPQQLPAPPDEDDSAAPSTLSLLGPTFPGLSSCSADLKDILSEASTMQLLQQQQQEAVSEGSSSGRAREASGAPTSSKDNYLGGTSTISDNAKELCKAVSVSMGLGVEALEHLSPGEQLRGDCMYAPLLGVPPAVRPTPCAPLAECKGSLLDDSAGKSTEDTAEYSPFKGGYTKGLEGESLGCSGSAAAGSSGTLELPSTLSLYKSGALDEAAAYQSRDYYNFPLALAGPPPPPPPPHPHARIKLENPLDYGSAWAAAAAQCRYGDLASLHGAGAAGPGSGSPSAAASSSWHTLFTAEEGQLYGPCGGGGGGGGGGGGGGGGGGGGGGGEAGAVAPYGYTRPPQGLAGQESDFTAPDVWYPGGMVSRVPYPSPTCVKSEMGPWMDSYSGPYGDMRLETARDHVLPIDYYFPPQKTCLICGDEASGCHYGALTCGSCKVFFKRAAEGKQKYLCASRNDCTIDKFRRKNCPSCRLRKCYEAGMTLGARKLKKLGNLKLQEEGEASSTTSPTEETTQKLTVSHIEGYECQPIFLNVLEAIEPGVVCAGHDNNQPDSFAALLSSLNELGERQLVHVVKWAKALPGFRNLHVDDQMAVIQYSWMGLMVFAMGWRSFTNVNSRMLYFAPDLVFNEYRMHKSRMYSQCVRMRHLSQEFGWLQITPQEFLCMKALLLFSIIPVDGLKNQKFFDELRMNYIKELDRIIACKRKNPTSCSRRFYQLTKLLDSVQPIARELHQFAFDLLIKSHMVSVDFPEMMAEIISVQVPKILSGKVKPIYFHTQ

[1] = system: cytochrome P450 (CYP) class of enzymes; conditions: compared with I3C; cited from earlier work
prostate cancer cells = conditions: cited from earlier work
LNCaP cells [2] = assay: HPLC quantitation of polyamine and acetyl polyamine levels in LNCaP cells; type: cell-based, human
Description: This method is routinely used in the analytical laboratory of the core facility of Cancer Centers and was accessible for quantitative assays necessary for the PK/PD determinations. […] Each data point was an average of two determinations where sample cell pellets were collected from three independent experiments.

LNCaP cells [3] = assay: DCF dye oxidation assay of androgen (R1881) induced ROS production; type: cell-based, human
Experimental: SSAT induction is a major source of androgen induced oxidative stress. In order to confirm that SSAT was the major source of androgen induced oxidative stress, we developed and used a stable LNCaP cell clone transfected with plasmid transcribing siRNA designed to silence SSAT mRNA expression. The SSAT mRNA level in these cells was determined by qRT-PCR method. In the cells transfected only with the vector, the SSAT mRNA level increased by over 8-fold after 96 h treatment with R1881, whereas in cells stably transfected with SSAT siRNA (si22), R1881 under similar treatment condition induced less than 2-fold increase in the SSAT transcript, showing over 75% silencing of SSAT mRNA expression. The ROS production induced by androgen analog R1881 in these cells was measured by DCF dye oxidation assay. The green fluorescence of oxidized DCF in androgen treated LNCaP cells was shown. The effect of SSAT silencing on the R1881 induced ROS production measured by DCF assay was also shown. The ratio of DCF fluorescence (green):DNA fluorescence (blue) for each of the treated well of a 96 well plate normalized to that of the average of control untreated wells represents the ROS level per cell relative to that in control untreated cells. The data points are the mean of numbers obtained from repeat experiments using thirty identically treated wells.
Each data point was an average of readings from six wells repeated twice in triplicates. […] The ROS levels of all CPC-200 pretreated cells were normalized to the ROS levels of cells treated with CPC-200 alone.

[4] = system: prostate tissue in TRAMPxFVB animals; assay: In vivo hydroethidine (HEt) dye oxidation in prostate tissue; parameters: species or system mouse
Description: In parallel to standardizing and validating quantitation of cellular fluorescence intensities with the Bioimager system, we also standardized conditions for fluorescence dye oxidation in animal tissues in vivo and in human tissue ex vivo using standard fluorescence microscopy. For these studies, another dye hydroethidine (HEt) was used. HEt in reduced form is colorless. It is oxidized by the ROS superoxide to ethidium (E^+). The intense fluorescence of E^+ion can be monitored at 488 excitation/595 emission frequencies at sub-nanomolar concentrations. […] After sacrifice, animals were exsanguinated to reduce fluorescence interference from blood hemoglobin. […] Unlike what observed in DCF dye oxidation assay in LNCaP cells where nuclei are more fluorescent than are the cytoplasms (FIG. 5B), the HEt dye fluorescence in the cytoplasm of the normal prostatic lumen is more than that in the nuclei. […] This is ascertained when the fluorescence intensities of HEt dye in the human tumor and normal tissue ROS are quantitated, as described herein.
We standardized the in vivo method of Hydroethidine (HEt) dye oxidation. […] Prostate tissues in paraffin blocks were sectioned on a microtome, thin sections were de-paraffinized and observed under a fluorescence microscope at 480 nm excitation and 600 nm emission wavelengths. […]

TRAMP tumors = assay: Chemopreventive efficacy against TRAMP tumors (tumor development, survival, PET-CT); type: in vivo, mouse
Experimental: Mice are treated with the optimal dose regimen and A cohort of 10 mice from each treatment will be euthanized at 24 weeks of age, when primary tumors are evident in the control group and the tumors collected for pharmacology, necropsy and other toxicity and tumor burden analyses. […] The remaining 20 mice per condition were followed for survival. Body weights and tumor volumes were measured once weekly throughout the study. A cohort of 10 mice in this treatment group is also monitored over the course of drug treatment by PET-CT scan for tumor growth and metastases. Each mouse is injected with ^124I labeled NM-404 per standard protocol and imaged on the microPET-microCT scanner.

[5] = Observed adverse side effects of CPC-200 treatment in vivo
[6] = in vivo, iv

For c1ccc2c(Cc3c[nH]c4ccccc34)c[nH]c2c1 [DIM, 3,3′-Diindolylmethane], the androgen receptor activation (androgen receptor) is listed as “block androgen receptor activation”, the “binding of dihydrotestosterone (DHT) to the androgen receptor” value (androgen receptor) is listed as “decreased binding” and the “induction of cytochrome P450 (CYP) class of enzymes” value [1] is listed as “to a lesser extent than does I^3C”. For the same compound, the PSA (prostate cancer cells) was “downregulation of PSA” and the “proliferation of prostate cancer cells” value (prostate cancer cells; in vitro and in a mouse xenograft model) was “inhibition of proliferation”.

In the case of “N,N′-bis(butadienyl)-1,4-butanediamine [CPC-200]”, the “R1881 induced increase in putrescine and spermidine” value (LNCaP cells [2]; 24 h CPC-200 pretreatment of R1881-treated cells) is reported as “almost completely blocked”, the “effect on most cellular polyamine levels” value (LNCaP cells [2]; CPC-200 treatment alone) is reported as “little or no significant effect” and the “R1881 (≧1 nM) induced ROS production” value (LNCaP cells [3]; LNCaP cells, 24 h pretreatment with 25 μM CPC-200, R1881 96 h) is reported as “effectively blocked”. For the same compound, the “cellular ROS levels” value (LNCaP cells [3]; LNCaP cells, CPC-200 treatment alone (25 μM)) was “minor decrease”, the “androgen-induced oxidative stress in cultured androgen-dependent human prostate cancer cells” value (LNCaP cells [3]; summary statement) was “significantly reduces oxidative stress; also recorded: almost completely blocked” and the “oxidative stress in prostate tissue / pre-neoplastic lesions in vivo” value ([4]; TRAMP model, summary statement) was “significantly reduces oxidative stress; also recorded: unambiguous reduction in oxidative stress”. For the same compound, the “HEt reporter dye monitored oxidation in prostatic tissue” value ([4]; TRAMPxFVB mice, six administrations of 25 mg/kg CPC-200 i.p. once every two weeks, HEt 8 mg/kg i.v.) was “no significant HEt reporter dye monitored oxidation is detected”, the overall survival (TRAMP tumors; TRAMP mice) was “greatly increases; also recorded: markedly increased” and the “time to spontaneous prostate tumor development” value (TRAMP tumors; TRAMP model) was “markedly delays; also recorded: greatly delayed”. The “prostate tumor by PET-CT scan” value (TRAMP tumors; TRxF male mice, scans at age 8, 12, 18 and 24 weeks) was “no prostate tumor” and the adverse side effects [5] was “without any observable adverse side effects”.

For CCN1c2cc(N)ccc2-c2ccc(N)cc2C1c1ccccc1 (centres unmarked) [HEt, hydroethidine], the “safety of i.v. injection” value [6] was “can be safely injected i.v”.
